Experimental data published in the NIST ThermoML archive (doi:10.1021/je060271a).

Conditions: Liquid, Vibrating tube method

CCCC(=O)OCC(COC(=O)CCC)(COC(=O)CCC)COC(=O)CCC [pentaerythritol tetrabutyrate]
Conditions	mass density [kg/m3]
303.16 K, 34848 kPa	1063.1
303.17 K, 281.6 kPa	1042.3
303.17 K, 295.5 kPa	1042.4
303.17 K, 308.6 kPa	1042.3
303.17 K, 338.6 kPa	1042.4
303.17 K, 356.5 kPa	1042.4
303.17 K, 372.3 kPa	1042.3
303.17 K, 389.7 kPa	1042.4
303.17 K, 409.5 kPa	1042.4
303.17 K, 424.5 kPa	1042.4
303.17 K, 439.6 kPa	1042.5
303.17 K, 457.1 kPa	1042.5
303.17 K, 488.2 kPa	1042.3
303.17 K, 509.3 kPa	1042.5
303.17 K, 526.8 kPa	1042.6
303.17 K, 1268.4 kPa	1043
303.17 K, 1312 kPa	1043
303.17 K, 1333.8 kPa	1043
303.17 K, 2851.4 kPa	1044.1
303.17 K, 2920.2 kPa	1044.1
303.17 K, 4808.4 kPa	1045.3
303.17 K, 4819 kPa	1045.4
303.17 K, 4825.7 kPa	1045.3
303.17 K, 4829.2 kPa	1045.3
303.17 K, 4830.8 kPa	1045.2
303.17 K, 4832.3 kPa	1045.3
303.17 K, 4834.4 kPa	1045.4
303.17 K, 4836 kPa	1045.4
303.17 K, 4837.7 kPa	1045.4
303.17 K, 4839.2 kPa	1045.4
303.17 K, 4840.6 kPa	1045.4
303.17 K, 4842.7 kPa	1045.3
303.17 K, 6518.3 kPa	1046.5
303.17 K, 6547.8 kPa	1046.4
303.17 K, 6572.5 kPa	1046.5
303.17 K, 7027.7 kPa	1046.8
303.17 K, 7057 kPa	1046.7
303.17 K, 7087.6 kPa	1046.8
303.17 K, 7117.6 kPa	1046.7
303.17 K, 7147.4 kPa	1046.8
303.17 K, 7177.7 kPa	1046.9
303.17 K, 7213.5 kPa	1046.9
303.17 K, 7243.4 kPa	1046.9
303.17 K, 8394.2 kPa	1047.6
303.17 K, 8419.6 kPa	1047.7
303.17 K, 8440.8 kPa	1047.7
303.17 K, 8462 kPa	1047.7
303.17 K, 8485.6 kPa	1047.7
303.17 K, 9218.9 kPa	1048
303.17 K, 34670 kPa	1063
303.17 K, 34730 kPa	1063.1
303.17 K, 34780 kPa	1063.1
303.17 K, 34833 kPa	1063.2
323.14 K, 3021.5 kPa	1026.7
323.14 K, 3045.8 kPa	1026.8
323.14 K, 3074.9 kPa	1026.9
323.14 K, 3099.4 kPa	1026.9
323.14 K, 3124.1 kPa	1027
323.14 K, 3153.6 kPa	1026.9
323.14 K, 3179.3 kPa	1026.9
323.14 K, 3204.7 kPa	1027
323.14 K, 3230.2 kPa	1027
323.14 K, 3262.8 kPa	1027.1
323.14 K, 3289.7 kPa	1027
323.14 K, 3316.7 kPa	1027.2
323.14 K, 3376.7 kPa	1027.2
323.14 K, 3404.8 kPa	1027.3
323.14 K, 3432.9 kPa	1027.2
323.14 K, 3526.4 kPa	1027.4
323.14 K, 3592.6 kPa	1027.3
323.14 K, 3622.8 kPa	1027.3
323.14 K, 3654 kPa	1027.4
323.14 K, 3691.9 kPa	1027.4
323.14 K, 3723.3 kPa	1027.5
323.14 K, 3755.5 kPa	1027.4
323.14 K, 3794.3 kPa	1027.5
323.14 K, 3827.2 kPa	1027.5
323.14 K, 3860.3 kPa	1027.6
323.14 K, 3900.3 kPa	1027.7
323.14 K, 3935 kPa	1027.6
323.14 K, 3969.1 kPa	1027.6
323.14 K, 4004.6 kPa	1027.7
323.14 K, 4047.6 kPa	1027.8
323.14 K, 4083.9 kPa	1027.7
323.14 K, 4121.4 kPa	1027.7
323.14 K, 4159.5 kPa	1027.8
323.14 K, 4204 kPa	1027.8
323.14 K, 4241.5 kPa	1027.9
323.14 K, 4280.5 kPa	1028
323.14 K, 4319.3 kPa	1027.9
323.14 K, 4366.4 kPa	1028
323.14 K, 4406.1 kPa	1028
323.14 K, 4447.6 kPa	1028.1
323.14 K, 4495.9 kPa	1028
323.14 K, 4536.6 kPa	1028.2
323.14 K, 4587.3 kPa	1028.3
323.14 K, 4629.9 kPa	1028.2
323.14 K, 4673.5 kPa	1028.3
323.14 K, 4708.8 kPa	1028.3
323.14 K, 4783.8 kPa	1028.3
323.14 K, 4863.6 kPa	1028.4
323.14 K, 4981.8 kPa	1028.4
323.14 K, 5097.9 kPa	1028.7
323.14 K, 5295.3 kPa	1028.8
323.14 K, 5295.4 kPa	1028.7
323.14 K, 5295.6 kPa	1028.8
323.14 K, 5487.4 kPa	1028.9
323.14 K, 5504.7 kPa	1029
323.14 K, 5543.7 kPa	1028.9
323.14 K, 12307 kPa	1033.8
323.14 K, 12337 kPa	1033.7
323.14 K, 14077 kPa	1034.9
323.14 K, 14107 kPa	1034.9
323.14 K, 14132 kPa	1034.8
323.14 K, 14159 kPa	1034.9
323.14 K, 14184 kPa	1035
323.14 K, 14777 kPa	1035.3
323.14 K, 16272 kPa	1036.3
323.14 K, 16347 kPa	1036.3
323.14 K, 16415 kPa	1036.4
323.14 K, 16456 kPa	1036.4
323.14 K, 16491 kPa	1036.5
323.14 K, 16525 kPa	1036.4
323.14 K, 16567 kPa	1036.5
323.14 K, 16603 kPa	1036.5
323.14 K, 16638 kPa	1036.5
323.14 K, 16681 kPa	1036.6
323.14 K, 16716 kPa	1036.5
323.14 K, 16912 kPa	1036.7
323.14 K, 16948 kPa	1036.8
323.14 K, 16993 kPa	1036.8
323.14 K, 17030 kPa	1036.8
323.14 K, 17069 kPa	1036.8
323.14 K, 17108 kPa	1036.7
323.14 K, 17153 kPa	1036.9
323.14 K, 17191 kPa	1037
323.14 K, 17229 kPa	1036.9
323.14 K, 17267 kPa	1036.9
323.14 K, 17315 kPa	1036.9
323.14 K, 17354 kPa	1036.9
323.14 K, 17394 kPa	1037
323.14 K, 17441 kPa	1037.1
323.14 K, 17476 kPa	1037
323.14 K, 17519 kPa	1037.1
323.14 K, 17554 kPa	1037.2
323.14 K, 17593 kPa	1037
323.14 K, 17628 kPa	1037.1
